Values of other authors, collected in patent US11013708B2, “Prevention of psychotic disorders and/or treatment of psychotic symptoms” (Orygen Youth Health Research Centre, priority 2008, dated 2021).

Key:
[1] = tested on: first-episode psychosis patients; details: in vivo 1H-MRS
ultra-high-risk groups = details: risperidone and cognitive therapy for 6 months vs supportive counselling

CC/C=C\C/C=C\C/C=C\C/C=C\C/C=C\CCCC(=O)O [EPA, all cis (or all z) 5,8, 11, 14, 17-eicosapentanoic acid]
glutathione in temporal lobes [1]: can increase glutathione

Cc1nc2n(c(=O)c1CCN1CCC(c3noc4cc(F)ccc34)CC1)CCCC2 [risperidone]
efficacy of preventive intervention vs comparator (ultra-high-risk groups): significantly more effective than supportive counselling at end of intervention, but not at 12-month follow-up
